# Experiments:
# [1] = cited from earlier work
# [2] = Maximum lopinavir concentration in suspension after thermal treatment (LC-MS/MS); assay type: physicochemical; conditions: after thermal treatment (melt-quench), normalized to lopinavir content
# Protocol: Lopinavir in suspension was measured in μg/mL.
Structure (SMILES),Log D [1],Maximum drug concentration in suspension [2]
"Nc1ccn([C@@H]2CS[C@H](CO)O2)c(=O)n1 [Lamivudine, lamivudine]",−1.1,–
"Cc1cccc(C)c1OCC(=O)N[C@@H](Cc1ccccc1)[C@@H](O)C[C@H](Cc1ccccc1)NC(=O)[C@H](C(C)C)N1CCCNC1=O [Lopinavir (amorphous), lopinavir]",–,322.00 µg/mL
"Cc1cccc(C)c1OCC(=O)N[C@@H](Cc1ccccc1)[C@@H](O)C[C@H](Cc1ccccc1)NC(=O)[C@H](C(C)C)N1CCCNC1=O [Lopinavir, lopinavir]",4.6,–
"CC(C)c1nc(CN(C)C(=O)N[C@H](C(=O)N[C@@H](Cc2ccccc2)C[C@H](O)[C@H](Cc2ccccc2)NC(=O)OCc2cncs2)C(C)C)cs1 [Ritonavir, ritonavir]",5.7,–
